Where a SMILES comes first, the peptide text is derived from it.
Tests used:
[1] = test system: Escherichia coli ATCC 25922; conditions: ATCC 25922
Method in brief: (§1)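 Peptides were made up as 1 mg/mL stocks in sterile water. Colonies in 0.85% saline were set to 0.5 McFarland, then diluted in cation-adjusted Mueller-Hinton II broth to about 5×10^5 CFU/mL. Inoculum was combined with two-fold serial peptide dilutions in water containing 0.002% (final) polysorbate 80.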

[2] = test system: Escherichia coli MCR-1 Af 45; conditions: Mueller-Hinton broth II, no visible growth after 18-20 hours at 35° C.
Method in brief: as §1

[3] = test system: Klebsiella pneumoniae SSI3010; conditions: SSI3010
Method in brief: as §1

[4] = test system: human red blood cells (hRBC); type: cell-based; conditions: red cells of human, 1 h, 0.2 g/L
Method in brief: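 Percent lysis was derived from supernatant absorbance at 540 nm relative to full lysis by 2.5% Triton X-100 (PBS defines 0%). Compounds, 200 μg/mL, were exposed for 1 h at 37° C to a 20% (v/v) suspension of washed human red cells.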

Row | SMILES | Escherichia coli ATCC 25922 MIC [1] | Escherichia coli MCR-1 Af 45 MIC [2] | Klebsiella pneumoniae SSI3010 MIC [3] | Hemolysis at 0.2 g/L [4]
1 | CC[C@H](C)[C@H](NC(=O)[C@@H](NC(=O)[C@@H]1C[C@@H](N)CN1C(=O)[C@@H](N)C(C)C)[C@@H](C)CC)C(=O)N[C@@H](Cc1ccc(O)cc1)C(=O)N[C@@H]1C(=O)N[C@@H](CC(N)=O)C(=O)N[C@@H](CCCNC(=N)N)C(=O)N[C@@H](CCN)C(=O)N[C@@H]([C@@H](C)O)C(=O)N[C@H](CCN)C(=O)N[C@@H](CCCNC(N)=O)C(=O)N[C@H](C(=O)N[C@@H](CCN)C(=O)N[C@@H](CCCNC(=N)N)C(=O)N[C@@H](Cc2ccc(O)cc2)C(=O)O)CSSC1(C)C [Example 91, Val-Pro((4R)NH2)-Ile-Ile-Tyr-Pen-Asn-Arg-Dab-Thr-^DDab-Cit-Cys-Dab-Arg-Tyr] (HELM PEPTIDE1{V.[N[C@@H]1C[C@@H](C(=O)[*:2])N([*:1])C1].I.I.Y.[Pen].N.R.[Dab].T.[NCC[C@@H](N[*:1])C(=O)[*:2]].[Cit].C.[Dab].R.Y}$PEPTIDE1,PEPTIDE1,6:R3-13:R3$$$V2.0) | 0.25 µg/mL | 0.03125 µg/mL | 0.25 µg/mL | <1%
2 | CC[C@H](C)[C@@H]1NC(=O)[C@@H](NC(=O)[C@H](Cc2ccc(O)cc2)NC(=O)[C@@H](NC(=O)[C@@H](NC(=O)[C@@H]2C[C@@H](O)CN2C(=O)[C@@H](N)C(C)C)[C@@H](C)CC)[C@@H](C)O)C(C)(C)SSC[C@@H](C(=O)N[C@@H](CO)C(=O)N[C@@H](CCCN)C(=O)N[C@@H](Cc2ccc(O)cc2)C(=O)O)NC(=O)[C@H](CCCCN)NC(=O)[C@@H](CCN)NC(=O)[C@H]([C@@H](C)O)NC(=O)[C@H](CCN)NC(=O)[C@H](CCCNC(=N)N)NC1=O [Example 92, Val-Hyp-Ile-Thr-Tyr-Pen-Ile-Arg-Dab-Thr-^DDab-Lys-Cys-Ser-Orn-Tyr] (HELM PEPTIDE1{V.[Hyp].I.T.Y.[Pen].I.R.[Dab].T.[NCC[C@@H](N[*:1])C(=O)[*:2]].K.C.S.[Orn].Y}$PEPTIDE1,PEPTIDE1,6:R3-13:R3$$$V2.0) | 0.25 µg/mL | 0.125 µg/mL | 0.5 µg/mL | <1%
3 | CC[C@H](C)[C@H](NC(=O)[C@@H](NC(=O)[C@@H]1C[C@@H](N)CN1C(=O)[C@@H](N)C(C)C)[C@@H](C)CC)C(=O)N[C@@H](Cc1ccc(O)cc1)C(=O)N[C@@H]1C(=O)N[C@@H](CC(N)=O)C(=O)N[C@@H](CCCNC(=N)N)C(=O)N[C@@H](CCN)C(=O)N[C@@H]([C@@H](C)O)C(=O)N[C@H](CCN)C(=O)N[C@@H](CCCCN)C(=O)N[C@H](C(=O)N[C@@H](CO)C(=O)N[C@@H](CCCNC(=N)N)C(=O)N[C@@H](Cc2ccc(O)cc2)C(=O)O)CSSC1(C)C [Example 93, Val-Pro((4R)NH2)-Ile-Ile-Tyr-Pen-Asn-Arg-Dab-Thr-^DDab-Lys-Cys-Ser-Arg-Tyr] (HELM PEPTIDE1{V.[N[C@@H]1C[C@@H](C(=O)[*:2])N([*:1])C1].I.I.Y.[Pen].N.R.[Dab].T.[NCC[C@@H](N[*:1])C(=O)[*:2]].K.C.S.R.Y}$PEPTIDE1,PEPTIDE1,6:R3-13:R3$$$V2.0) | 0.25 µg/mL | 0.0625 µg/mL | 0.25 µg/mL | <1%
4 | CC[C@H](C)[C@H](NC(=O)[C@@H]1C[C@@H](O)CN1C(=O)[C@@H](N)C(C)C)C(=O)N[C@H](C(=O)N[C@@H](Cc1ccc(O)cc1)C(=O)N[C@@H]1C(=O)N[C@@H](CC(N)=O)C(=O)N[C@@H](CCCNC(=N)N)C(=O)N[C@@H](CCN)C(=O)N[C@@H](CO)C(=O)N[C@H](CCN)C(=O)N[C@@H](CCCCN)C(=O)N[C@H](C(=O)N[C@@H](CCN)C(=O)N[C@@H](CCCN)C(=O)N[C@@H](Cc2ccc(O)cc2)C(=O)O)CSSC1(C)C)[C@@H](C)O [Example 94, Val-Hyp-Ile-Thr-Tyr-Pen-Asn-Arg-Dab-Ser-^DDab-Lys-Cys-Dab-Orn-Tyr] (HELM PEPTIDE1{V.[Hyp].I.T.Y.[Pen].N.R.[Dab].S.[NCC[C@@H](N[*:1])C(=O)[*:2]].K.C.[Dab].[Orn].Y}$PEPTIDE1,PEPTIDE1,6:R3-13:R3$$$V2.0) | 0.0625 µg/mL | 0.0625 µg/mL | 0.25 µg/mL | <1%
5 | CC[C@H](C)[C@@H]1NC(=O)[C@@H](NC(=O)[C@H](Cc2ccc(O)cc2)NC(=O)[C@@H](NC(=O)[C@@H](NC(=O)[C@@H]2C[C@@H](O)CN2C(=O)[C@@H](N)C(C)(C)C)[C@@H](C)CC)[C@@H](C)O)C(C)(C)SSC[C@@H](C(=O)N[C@@H](CCN)C(=O)N[C@@H](CCCN)C(=O)N[C@@H](Cc2ccc(O)cc2)C(=O)O)NC(=O)[C@H](CCCCN)NC(=O)[C@@H](CCN)NC(=O)[C@H]([C@@H](C)O)NC(=O)[C@H](CCN)NC(=O)[C@H](CCCNC(=N)N)NC1=O [Example 95, tBuGly-Hyp-Ile-Thr-Tyr-Pen-Ile-Arg-Dab-Thr-^DDab-Lys-Cys-Dab-Orn-Tyr] (HELM PEPTIDE1{[CC(C)(C)[C@H](N)C(=O)[*:2]].[Hyp].I.T.Y.[Pen].I.R.[Dab].T.[NCC[C@@H](N[*:1])C(=O)[*:2]].K.C.[Dab].[Orn].Y}$PEPTIDE1,PEPTIDE1,6:R3-13:R3$$$V2.0) | 0.125 µg/mL | 0.125 µg/mL | 0.25 µg/mL | <1%
6 | CC[C@H](C)[C@H](NC(=O)[C@@H](NC(=O)[C@@H]1C[C@@H](O)CN1C(=O)[C@@H](N)C(C)C)[C@@H](C)CC)C(=O)N[C@@H](Cc1ccc(O)cc1)C(=O)N[C@@H]1C(=O)N[C@@H](CC(N)=O)C(=O)N[C@@H](CCCNC(=N)N)C(=O)N[C@@H](CCN)C(=O)N[C@@H](CO)C(=O)N[C@H](CCN)C(=O)N[C@@H]([C@@H](C)CC)C(=O)N[C@H](C(=O)N[C@@H](CCN)C(=O)N[C@@H](CCCN)C(=O)N[C@@H](Cc2ccc(O)cc2)C(=O)O)CSSC1(C)C [Example 96, Val-Hyp-Ile-Ile-Tyr-Pen-Asn-Arg-Dab-Ser-^DDab-Ile-Cys-Dab-Orn-Tyr] (HELM PEPTIDE1{V.[Hyp].I.I.Y.[Pen].N.R.[Dab].S.[NCC[C@@H](N[*:1])C(=O)[*:2]].I.C.[Dab].[Orn].Y}$PEPTIDE1,PEPTIDE1,6:R3-13:R3$$$V2.0) | 0.25 µg/mL | 0.25 µg/mL | 0.5 µg/mL | <1%
7 | CC[C@H](C)[C@H](NC(=O)[C@@H](NC(=O)[C@@H]1C[C@@H](O)CN1C(=O)[C@@H](N)C(C)C)[C@@H](C)CC)C(=O)N[C@@H](Cc1ccc(O)cc1)C(=O)N[C@@H]1C(=O)N[C@@H](CC(N)=O)C(=O)N[C@@H](CCCNC(=N)N)C(=O)N[C@@H](CCN)C(=O)N[C@@H]([C@@H](C)O)C(=O)N[C@H](CCN)C(=O)N[C@@H]([C@@H](C)CC)C(=O)N[C@H](C(=O)N[C@@H](CCN)C(=O)N[C@@H](CCCN)C(=O)N[C@@H](Cc2ccc(O)cc2)C(=O)O)CSSC1(C)C [Example 97, Val-Hyp-Ile-Ile-Tyr-Pen-Asn-Arg-Dab-Thr-^DDab-Ile-Cys-Dab-Orn-Tyr] (HELM PEPTIDE1{V.[Hyp].I.I.Y.[Pen].N.R.[Dab].T.[NCC[C@@H](N[*:1])C(=O)[*:2]].I.C.[Dab].[Orn].Y}$PEPTIDE1,PEPTIDE1,6:R3-13:R3$$$V2.0) | 0.25 µg/mL | 0.25 µg/mL | 0.5 µg/mL | <1%
8 | CC[C@H](C)[C@H](NC(=O)[C@@H](NC(=O)[C@@H]1C[C@@H](O)CN1C(=O)[C@@H](N)C(C)C)[C@@H](C)CC)C(=O)N[C@@H](Cc1ccc(O)cc1)C(=O)N[C@@H]1C(=O)N[C@@H](CC(N)=O)C(=O)N[C@@H](CCCNC(=N)N)C(=O)N[C@@H](CCN)C(=O)N[C@@H]([C@@H](C)O)C(=O)N[C@H](CCN)C(=O)N[C@@H](CCCNC(N)=O)C(=O)N[C@H](C(=O)N[C@@H](CCN)C(=O)N[C@@H](CCCNC(=N)N)C(=O)N[C@@H](Cc2ccc(O)cc2)C(=O)O)CSSC1(C)C [Example 98, Val-Hyp-Ile-Ile-Tyr-Pen-Asn-Arg-Dab-Thr-^DDab-Cit-Cys-Dab-Arg-Tyr] (HELM PEPTIDE1{V.[Hyp].I.I.Y.[Pen].N.R.[Dab].T.[NCC[C@@H](N[*:1])C(=O)[*:2]].[Cit].C.[Dab].R.Y}$PEPTIDE1,PEPTIDE1,6:R3-13:R3$$$V2.0) | 0.25 µg/mL | 0.25 µg/mL | 0.5 µg/mL | <1%
9 | CC[C@H](C)[C@@H]1NC(=O)[C@@H](NC(=O)[C@H](Cc2ccc(O)cc2)NC(=O)[C@@H](NC(=O)[C@@H](NC(=O)[C@@H]2C[C@@H](O)CN2C(=O)[C@@H](N)C(C)C)[C@@H](C)CC)[C@@H](C)O)C(C)(C)SSC[C@@H](C(=O)N[C@@H](CCN)C(=O)N[C@@H](CO)C(=O)N[C@@H](Cc2ccc(O)cc2)C(=O)O)NC(=O)[C@H](CCCCN)NC(=O)[C@@H](CCN)NC(=O)[C@H]([C@@H](C)O)NC(=O)[C@H](CCN)NC(=O)[C@H](CCCNC(=N)N)NC1=O [Example 99, Val-Hyp-Ile-Thr-Tyr-Pen-Ile-Arg-Dab-Thr-^DDab-Lys-Cys-Dab-Ser-Tyr] (HELM PEPTIDE1{V.[Hyp].I.T.Y.[Pen].I.R.[Dab].T.[NCC[C@@H](N[*:1])C(=O)[*:2]].K.C.[Dab].S.Y}$PEPTIDE1,PEPTIDE1,6:R3-13:R3$$$V2.0) | 0.125 µg/mL | 0.125 µg/mL | 0.25 µg/mL | <1%
